The source made the active and inactive calls. No cut-off for these calls is given here.
What was measured:
Homo sapiens = species on record: Homo sapiens; assay: Binding affinity to human His-tagged PAK4 (300 to 591 residues) L301A mutant expressed in Escherichia coli BL21 (DE3)pLysS in presence of staurosporine by ligand observed NMR competitive assay
[1] = Binding affinity to human His-tagged PAK4 (300 to 591 residues) L301A mutant expressed in Escherichia coli BL21 (DE3)pLysS by surface plasmon resonance assay

SMILES | Activity (Homo sapiens) | Kd [1] [µM]
CNC(=O)c1cnn2ccc(C#N)cc12 | Active | 
c1c(Nc2nc(N3CCCCC3)nc3[nH]ncc23)n[nH]c1C1CC1 |  | 0.05
NS(=O)(=O)c1cccc2cnccc12 |  | 300
Nc1cccc2ncccc12 |  | 510

— ChEMBL document CHEMBL5104209 (RSC Med Chem, 2022)
